How the values were obtained:
Assay in all cases: Post-emergent Test III, herbicidal activity in wheat and barley
Assay type in all cases: in vivo
[1] = tested on: KCHSC: kochia (Kochia scoparia); details: 21 days after application; for pest or weed control at 35 g/ha / pest or weed control at 70 g/ha: Bassia scoparia, post-emergence, 504 h, read-out: Visual Gorowth Reduction (%) 21 days After Application KCHSC; for pest or weed control at 35 g/ha: 35 g ai/ha; for pest or weed control at 70 g/ha: 70 g ai/ha; for GR50 KCHSC / GR80 KCHSC: probit analysis; for GR50 KCHSC: dose for 50 percent growth reduction; for GR80 KCHSC: dose for 80 percent growth reduction
Method in brief: (§1)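 GR20, GR50, GR80 and GR90 come from probit analysis of visual injury scores (0 = none, 100 = complete kill) taken 21 d after treatment. Foliar application was by track sprayer delivering 187 L/ha at five rates, from high down to 1/16×, onto greenhouse plants at the 2–3 leaf stage, with solvent-blank controls.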

[2] = tested on: TRZSS: wheat, including spring and winter (Triticum aestivum); details: 21 days after application; for pest or weed control at 35 g/ha / pest or weed control at 70 g/ha: Triticum aestivum, post-emergence, 504 h, read-out: Visual Gorowth Reduction (%) 21 days After Application TRZSS; for pest or weed control at 35 g/ha: 35 g ai/ha; for pest or weed control at 70 g/ha: 70 g ai/ha; for GR20 TRZSS: probit analysis, dose for 20 percent growth reduction (crop)
Method in brief: as §1

[3] = tested on: HORSS: barley, including spring and winter (Hordeum vulgare); details: 21 days after application; for pest or weed control at 35 g/ha / pest or weed control at 70 g/ha: Hordeum vulgare, post-emergence, 504 h, read-out: Visual Gorowth Reduction (%) 21 days After Application HORSS; for pest or weed control at 35 g/ha: 35 g ai/ha; for pest or weed control at 70 g/ha: 70 g ai/ha; for GR20 HORSS: probit analysis, dose for 20 percent growth reduction (crop)
Method in brief: as §1

[4] = tested on: MATSS: scented mayweed (Matricaria chamomilla), pineappleweed (Matricaria matricarioides); details: 21 days after application; for pest or weed control at 35 g/ha / pest or weed control at 70 g/ha: Matricaria chamomilla, post-emergence, 504 h, read-out: Visual Gorowth Reduction (%) 21 days After Application MATSS; for pest or weed control at 35 g/ha: 35 g ai/ha; for pest or weed control at 70 g/ha: 70 g ai/ha; for GR50 MATSS / GR80 MATSS: probit analysis; for GR50 MATSS: dose for 50 percent growth reduction; for GR80 MATSS: dose for 80 percent growth reduction
Method in brief: as §1

[5] = tested on: VIOSS: wild pansy (Viola tricolor), field violet (Viola arvensis); details: 21 days after application; for pest or weed control at 35 g/ha / pest or weed control at 70 g/ha: Viola tricolor, post-emergence, 504 h, read-out: Visual Gorowth Reduction (%) 21 days After Application VIOSS; for pest or weed control at 35 g/ha: 35 g ai/ha; for pest or weed control at 70 g/ha: 70 g ai/ha; for GR50 VIOSS / GR80 VIOSS: probit analysis; for GR50 VIOSS: dose for 50 percent growth reduction; for GR80 VIOSS: dose for 80 percent growth reduction
Method in brief: as §1

[6] = tested on: SASKR: Russian thistle (Salsola iberica); details: 21 days after application; for pest or weed control at 35 g/ha / pest or weed control at 70 g/ha: Salsola tragus, post-emergence, 504 h, read-out: Visual Gorowth Reduction (%) 21 days After Application SASKR; for pest or weed control at 35 g/ha: 35 g ai/ha; for pest or weed control at 70 g/ha: 70 g ai/ha; for GR50 SASKR / GR80 SASKR: probit analysis; for GR50 SASKR: dose for 50 percent growth reduction; for GR80 SASKR: dose for 80 percent growth reduction
Method in brief: as §1

[7] = tested on: VERPE: bird's-eye speedwell (veronica persica); details: 21 days after application; for pest or weed control at 35 g/ha / pest or weed control at 70 g/ha: Veronica persica, post-emergence, 504 h, read-out: Visual Gorowth Reduction (%) 21 days After Application VERPE; for pest or weed control at 35 g/ha: 35 g ai/ha; for pest or weed control at 70 g/ha: 70 g ai/ha; for GR50 VERPE / GR80 VERPE: probit analysis; for GR50 VERPE: dose for 50 percent growth reduction; for GR80 VERPE: dose for 80 percent growth reduction
Method in brief: as §1

SMILES	pest or weed control at 35 g/ha [1] [%]	pest or weed control at 70 g/ha [1] [%]	GR50 KCHSC [1] [g ai/ha]	GR80 KCHSC [1] [g ai/ha]	pest or weed control at 35 g/ha [2] [%]	pest or weed control at 70 g/ha [2] [%]	GR20 TRZSS [2] [g ai/ha]	pest or weed control at 35 g/ha [3] [%]	pest or weed control at 70 g/ha [3] [%]	GR20 HORSS [3] [g ai/ha]	pest or weed control at 35 g/ha [4] [%]	pest or weed control at 70 g/ha [4] [%]	GR50 MATSS [4] [g ai/ha]	GR80 MATSS [4] [g ai/ha]	pest or weed control at 35 g/ha [5] [%]	pest or weed control at 70 g/ha [5] [%]	GR50 VIOSS [5] [g ai/ha]	GR80 VIOSS [5] [g ai/ha]	pest or weed control at 35 g/ha [6] [%]	pest or weed control at 70 g/ha [6] [%]	other results
COc1c(N)nc(-c2ccc(Br)c(F)c2F)nc1C(=O)O [Compound 8]	95 to 100	95 to 100	3	6	75 to 84	85 to 94	1	60 to 74	75 to 84	1	60 to 74	75 to 84	26	73	85 to 94	85 to 94	13	28	85 to 94	85 to 94	GR50 SASKR [6]: 1 g ai/ha; GR80 SASKR [6]: 16 g ai/ha; pest or weed control at 35 g/ha [7]: 95 to 100%; pest or weed control at 70 g/ha [7]: 95 to 100%; GR50 VERPE [7]: 1 g ai/ha; GR80 VERPE [7]: 1 g ai/ha
Nc1c(F)c(-c2ccc(Br)c(F)c2)nc(C(=O)O)c1Cl [Compound 21]	95 to 100	95 to 100	1	1	75 to 84	85 to 94	1	85 to 94	95 to 100	1	85 to 94	85 to 94	5	31	95 to 100	95 to 100	4	6	75 to 84	85 to 94	GR50 SASKR [6]: 1 g ai/ha; GR80 SASKR [6]: 25 g ai/ha; pest or weed control at 35 g/ha [7]: 30 to 44%; pest or weed control at 70 g/ha [7]: 0 to 29%; GR50 VERPE [7]: 130 g ai/ha; GR80 VERPE [7]: >140 g ai/ha
C#Cc1ccc(-c2nc(C(=O)O)c(Cl)c(N)c2F)c(F)c1 [Compound 108]	0 to 29	0 to 29	>140	>140	75 to 84	75 to 84	6	30 to 44	45 to 59	16	30 to 44	60 to 74	58	>140	30 to 44	30 to 44	85	>140	0 to 29	30 to 44	GR50 SASKR [6]: 136 g ai/ha; GR80 SASKR [6]: >140 g ai/ha; pest or weed control at 35 g/ha [7]: 60 to 74%; pest or weed control at 70 g/ha [7]: 75 to 84%; GR50 VERPE [7]: 22 g ai/ha; GR80 VERPE [7]: 67 g ai/ha
Nc1c(F)c(-c2ccc(I)c(F)c2F)nc(C(=O)O)c1Cl [Compound 141, 4-amino-3-chloro-6-(2,3-difluoro-4-iodophenyl)-5-fluoropicolinic acid]	75 to 84	85 to 94	7	28	75 to 84	85 to 94	1	85 to 94	95 to 100	1	75 to 84	95 to 100	15	33	95 to 100	95 to 100	7	11	75 to 84	85 to 94	GR50 SASKR [6]: 4 g ai/ha; GR80 SASKR [6]: 40 g ai/ha; pest or weed control at 35 g/ha [7]: 75 to 84%; pest or weed control at 70 g/ha [7]: 85 to 94%; GR50 VERPE [7]: 14 g ai/ha; GR80 VERPE [7]: 43 g ai/ha
Nc1cc(-c2ccc(I)c(F)c2F)nc(C(=O)O)c1Cl [Compound 38]	85 to 94	85 to 94	1	24	85 to 94	85 to 94	1	85 to 94	85 to 94	1	60 to 74	85 to 94	21	56	95 to 100	95 to 100	13	26	60 to 74	60 to 74	GR50 SASKR [6]: 17 g ai/ha; GR80 SASKR [6]: 68 g ai/ha; pest or weed control at 35 g/ha [7]: 30 to 44%; pest or weed control at 70 g/ha [7]: 60 to 74%; GR50 VERPE [7]: 42 g ai/ha; GR80 VERPE [7]: 112 g ai/ha

— patent US9113629B2, “4-amino-6-(4-substituted-phenyl)-picolinates and 6-amino-2-(4-substituted-phenyl)-pyrimidine-4-carboxylates and their use as herbicides” (DOW AGROSCIENCES LLC, priority 2013, dated 2015)
